# Reference: US20090076130A1, “COMPOUNDS FOR THE INHIBITION OF HISTONE DEACETYLASE” (NATUREWISE BIOTECH & MEDICALS CORPORATION, priority 2007, published 2009)
# How the values were obtained:
# [1] = system: rat C6 glioma cells; experiment: Growth of rat C6 glioma cells (observation and cell counting); format: cell-based; settings: 2.5, 5 and 10 μg/mL, 48 hours, cell density and cell counting vs control
# Protocol: The cancer cell line, rat C6 glioma cells, was cultured in Dulbecco's modified Eagle's medium (DMEM; Gibco) supplemented with penicillin G, streptomycin sulphate, 0.5 mM of L-glutamine and 10% fetal bovine serum (FBS; Gibco) at 37° C., 5% CO2 and 95% relative humidity. For all experiments, the cells were seeded at a density of 3×10^5 per well in 6-well plates. After 24 hours, the cells were treated with different concentrations of the compound NBM-HD-1 (i.e., the compound of formula III depicted herein). After 48 hours, the cells were observed and counted. According to the results shown in FIG. 1, NBM-HD-1 can arrest the growth of rat C6 glioma cells. After the C6 glioma cells were incubated with 2.5 μg/mL (see FIG. 1(A)-b), 5 μg/mL (see FIG. 1(A)-c) and 10 μg/mL (see FIG. 1(A)-d) of NBM-HD-1 for 48 hours, the density of the cells reduced dramatically in comparison with that of control (see FIG. 1(A)-a).
# [2] = system: cyclinD1, cyclinB1, p21; experiment: RT-PCR of cell cycle regulator genes in C6 glioma cells; format: cell-based, rat; settings: GAPDH internal control
# Protocol: For the rat C6 glioma cells, the cell cycle related to mRNA expression was examined by RT-PCR. The total RNAs were isolated from the treated C6 cells by using the RNeasy Mini Kit (Qiagen) according to the manufacturer's instructions. The cDNAs were produced from 500 ng of total RNAs using ReverTra-Plus-™ (TOYOBO). The RT product (1 μl) was amplified by PCR with primers to analyze several genes of cell cycle by using GAPDH as an internal control. According to the results of FIG. 3, NBM-HD-1 can modulate the expression of some cell cycle regulators. […] On the contrary, the expression of p21 was increased.
# [3] = system: GFAP; experiment: GFAP expression in C6 glioma cells (immuno-fluorescent staining, RT-PCR); format: cell-based, rat
# Protocol: After the C6 glioma cells were incubated with 10 μg/mL NBM-HD-1 for 24 hours, they were fixed and analyzed by the traditional immuno-fluorescent staining method. Staining of glia was carried out by using glial-specific GFAP antibody (SIGMA) as the primary antibody and a fluorescence labeled rabbit immuno-globulin (SIGMA) as the secondary antibody to bind with the primary antibody. The cells which are GFAP-positive were excited by a specific light source to emit fluorescence. Also, the nuclei were stained with DAPI. […] In contrast with the control group, more GFAP proteins were detected in the photos of the cells being treated with 10 μg/mL of NBM-HD-1.
# The GFAP mRNA expression was examined by RT-PCR.
# [4] = system: human giloblastoma DBTRG-05MG cancer cells; experiment: Growth and morphology of human giloblastoma DBTRG-05MG cancer cells; format: cell-based; settings: 72 hours
# Protocol: The human giloblastoma DBTRG-05MG cancer cells were cultured in RPMI medium 1640 (Gibco) supplemented with penicillin G, streptomycin sulphate, 0.5 mM of L-glutamine and 10% fetal bovine serum (FBS; Gibco), 100 mh/L sodium pyruvate (Gibco), and 1% NEAA (Gibco) at 37° C., 5% CO2 and 95% relative humidity. For these experiments, the cells were seeded at a density of 3×10^5 per well of 6-well plates. After 24 hours, the cells were treated with different concentrations of NBM-HD-1 and 4 mM sodium butyrate. The cells were observed and counted after 72 hours. […] In 05MG cells (FIG. 7(A)), after incubation with 2.5 μg/mL (FIG. 7(A)-b), 5 μg/mL (FIG. 7(A)-c) and 10 μg/mL (FIG. 7(A)-d) of NBM-HD-1 for 72 hours, the density of the cells reduced dramatically in comparison with that of the control group (FIG. 7(A)-a). The 05MG cells in the experimental group also changed to become longer than those in the control group.
# [5] = system: human breast MCF-7 cancer cells; experiment: Growth and morphology of breast cancer MCF-7 cells; format: cell-based
# Protocol: The breast cancer MCF-7 cells, were cultured in Dulbecco's modified Eagle's medium (DMEM; Gibco) supplemented with penicillin G, streptomycin sulphate, 0.5 mM of L-glutamine and 10% fetal bovine serum (FBS; Gibco) at 37° C., 5% CO2 and 95% relative humidity. The cells were seeded at a density of 3×10^5 per well of 6-well plates. After 24 hours, the cells were treated with different concentrations of compound NBM-HD-1 and 4 mM sodium butyrate being used as the positive control. The cells were observed after 48 hours and counted after 96 hours. […] In FIG. 8(A), after the cells were incubated with 2.5 μg/mL (FIG. 8(A)-b), 5 μg/mL (FIG. 8(A)-c) and 10 μg/mL (FIG. 8(A)-d) of NBM-HD-1 for 48 hours, the density of MCF-7 cells reduced dramatically in comparison with that of the control group (FIG. 8(A)-a). The morphology of the MCF-7 cells in the experimental group changed in comparison with that in the control group. […] The results of the cell counting (FIG. 8(B)) indicate that, similar to sodium butyrate, NBM-HD-1 inhibits cell growth.
# MCF-7 cancer cells were seeded at a density of 3×10^5 per well in 6-well plates. After 24 hours, the cells were treated with different concentrations of compound NBM-HD-2 and 4 mM sodium butyrate being used as the positive control. The cells were observed and counted after 72 hours. […] In FIG. 13(A), after the cells were incubated with 2.5 μg/mL (FIG. 13(A)-c), 5 μg/mL (FIG. 13(A)-d), 7.5 μg/mL (FIG. 13(A)-e) and 10 μg/mL (FIG. 13(A)-f) of NBM-HD-2 for 72 hours, the density of MCF-7 cells reduced dramatically in comparison with that of the control group (FIG. 13(A)-a). The morphology of the MCF-7 cells in the experimental group changed in comparison with that in the control group.
# MCF-7 cancer cells were seeded at a density of 3×10^5 per well of 6-well plates. After 24 hours, the cells were treated with different concentrations of compound NBM-HD-3 and 4 mM sodium butyrate, which was being used as the positive control. The cells were observed and counted after 72 hours. […] In FIG. 14(A), after the cells were incubated with 2.5 μg/mL (FIG. 14(A)-c), 5 μg/mL (FIG. 14(A)-d), 7.5 μg/mL (FIG. 14(A)-e) and 10 μg/mL (FIG. 14(A)-f) of NBM-HD-3 for 72 hours, the density of MCF-7 cells reduced dramatically in comparison with that of the control group (FIG. 14(A)-a). The morphology of the MCF-7 cells in the experimental group changed in comparison with that in the control group. […] The results of the cell counting (FIG. 14(B)) indicate that, similar to sodium butyrate, NBM-HD-3 inhibits cell growth.
smiles,measurement,setting,value
COc1cc2c(c(OC)c1CCC(C)(C)O)C(=O)C[C@@H](c1ccc(OC)c(OC)c1C/C=C(\C)CCCC(C)(C)O)O2 [NBM-HD-1],growth of C6 glioma cells,[1],can inhibit the growth of C6 glioma cells in a dose-dependent manner
same,expression of cyclinD1 and cyclinB1,[2],decrease the expression of cyclinD1 and cyclinB1 in a dose-dependent manner
same,expression of p21,[2],increased
same,GFAP expression (immuno-fluorescent staining),"[3]; 10 μg/mL, 24 hours",can induce the GFAP expression of C6 glioma cancer cells
same,GFAP mRNA expression,[3]; RT-PCR,increased in a dose-dependent manner
same,morphology of 05MG cancer cells,"[4]; 2.5, 5, 10 μg/mL",change the morphology of 05MG cancer cells
same,growth of 05MG cancer cells,"[4]; NBM-HD-1 2.5, 5, 10 μg/mL or 4 mM sodium butyrate",can inhibit the growth of 05MG cells in a dose-dependent manner
same,morphology of MCF-7 cancer cells,"[5]; 2.5, 5, 10 μg/mL, 48 hours",change their morphology
same,growth of MCF-7 cancer cells,"[5]; NBM-HD-1 2.5, 5, 10 μg/mL or 4 mM sodium butyrate, observed after 48 hours, counted after 96 hours",can inhibit the growth of MCF-7 cancer cells in a dose-dependent manner
